Results from patent US10654866B2, “Selective estrogen receptor degraders” (Eli Lilly and Company, priority 2018, dated 2020).
Like-named read-outs stand apart in the source and are kept apart here.

Assays:
[1] = system: MCF7 ESR1 Y537N mutant cells; test: Cell proliferation assay in MCF7-ESR1 Y537N-682; assay type: cell-based, human; conditions: seven days, read-out: Relative IC50 (μM) MCF7 ESR1 Y537N mutant cells
Description: Seed MCF7 (purchased from ATCC HTB-22) cells at a density of 2,000 cells per well in DMEM phenol red free media 10% FBS (20 μL volume) (charcoal stripped) into a clear bottom 384-well cell culture plate. Plate MCF7-ESRY537N-682 (generated by CRISPR/Cas9 gene editing of ESr1 gene in MCF7 cells, clone #682) in DMEM media supplemented with 10% FBS, and 1% penicillin/streptomycin antibiotics at a density of 1000 cells per well. Incubate the plates at 37° C. and 5% CO2. The following day dose the cells with the test compound. Use an Echo 555 acoustic dispenser to prepare test compound serial dilutions (1:3) in a range from 60 μM to 0.003 μM. Dose the cells with the addition of 5 μL from the serial dilution plate to the cell plate, producing a final DMSO concentration of 0.2% with a final test compound concentration dose range between 20 and 0.001 μM. For the maximum point use media containing 0.2% of DMSO and for the minimum point use fulvestrant diluted at 2 μM final concentrations in the growth media containing 0.2% DMSO. After dosing with the test compound, incubate the cell plates at 37° C. and 5% CO2. Seven days after test compound addition, remove the plates from the incubator and add cold EtOH 96% (65 μL) to each well. […] Seal the plates and incubate 1 hour at room temperature on the bench (preserved from light). Scan the plates with ACUMEN EXPLORER™ [Laser-scanning fluorescence microplate cytometer manufactured by TTP LABTECH LTD].

[2] = target: ERα (wild type) (Homo sapiens (Human), UniProt P03372); test: ERα (wild type) competition binding assay; conditions: 3H-estradiol competition; Ki from IC50 by Cheng-Prusoff
ERα (wild type), sequence (P03372 whole entry): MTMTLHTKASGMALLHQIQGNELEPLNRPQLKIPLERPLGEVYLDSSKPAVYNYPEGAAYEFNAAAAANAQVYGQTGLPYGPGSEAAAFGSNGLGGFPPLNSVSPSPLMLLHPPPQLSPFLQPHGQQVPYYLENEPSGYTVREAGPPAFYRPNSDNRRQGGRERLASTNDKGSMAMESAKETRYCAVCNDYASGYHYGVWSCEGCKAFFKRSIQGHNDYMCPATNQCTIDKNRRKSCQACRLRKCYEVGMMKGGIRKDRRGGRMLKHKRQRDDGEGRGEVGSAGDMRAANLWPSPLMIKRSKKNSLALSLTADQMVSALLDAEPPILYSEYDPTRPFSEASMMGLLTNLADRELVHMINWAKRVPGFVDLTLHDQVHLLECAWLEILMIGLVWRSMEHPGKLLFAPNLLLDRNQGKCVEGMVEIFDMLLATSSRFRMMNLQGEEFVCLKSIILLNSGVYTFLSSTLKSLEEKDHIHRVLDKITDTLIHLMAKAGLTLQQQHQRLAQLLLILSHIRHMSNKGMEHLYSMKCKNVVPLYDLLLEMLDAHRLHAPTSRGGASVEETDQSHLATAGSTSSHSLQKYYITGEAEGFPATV
Description: Add the test compound at 10 different concentrations ranging from 10,000 nM to 0.5 nM, and determine nonspecific binding in the presence of 1 μM of 1713 estradiol. Incubate the binding reaction (140 μL) for 4 hours at room temperature, and then add cold dextran-charcoal buffer (70 μL) (containing per 50 mL of assay buffer, 0.75 g of charcoal and 0.25 g of dextran) to each reaction. Mix the plates for 8 minutes on an orbital shaker at 4° C. and then centrifuge at 3000 rpm at 4° C. for 10 minutes. Transfer an aliquot (120 μL) of the mixture to another 96-well, white flat bottom plate (Costar) and add Perkin Elmer Optiphase Supermix scintillation fluid (175 μL) to each well. Seal the plates and shake vigorously on an orbital shaker. After an incubation of 2.5 hours, read the plates in a Wallac Microbeta counter. […] Convert the IC50 values for the compound to Ki using Cheng-Prusoff equation.

[3] = target: T1, ERα (Homo sapiens (Human), UniProt P03372); test: PRα inhibition (ERα functional antagonism) cell assay in MCF7 cells; assay type: cell-based; conditions: MCF7 cells pretreated with 0.47 nM estradiol, % PRα positive cells; read-out: Relative IC50
T1 sequence (P03372 whole entry): as above
Text: The purpose of the following PRα inhibition (ERα functional antagonism) cell assay is to determine the antagonistic activity of a test compound against the ERα receptor. An antagonist in this assay is expected to block the function of the ERα receptor.
Carry out the assay conditions as detailed in the ERα degradation Cell base Acumen assay above, using the MCF7 cell line except that, prior to test compound dispensing, remove the media from the cell plate and pretreat all wells except for the negative control wells (column 24 of the plate) with assay media containing 0.47 nM estradiol for 30 minutes. In this assay, carry out immunostaining for the detection of PRα and scan the plates with ACUMEN EXPLORER™ [Laser-scanning fluorescence microplate cytometer manufactured by TTP LABTECH LTD] to measure PRα. Image analysis is based on cellular fluorescent signals for identifying positive cells. Identify PRα positive cells by mean intensity. Use total intensity at 575-640 from propidium iodide/DNA to identify individual cells. Assay output is % PRα positive cells. Determine the IC50 by curve fitting to a four parameter logistic for each output using GENE DATA™.

[4] = target: T1, ERα; test: ERα degradation assay in MCF7 cells; assay type: cell-based; conditions: 24 hours, % ER positive cells, read-out: Relative IC50
Description: The purpose of the following ERα degradation assay is to measure the degradation of ERα by a test compound in an ERα positive breast cancer cell line such as MCF7.
Culture MCF7 (purchased from ATCC HTB-22) cells in DMEM media supplemented with 10% FBS, 0.01 mg/mL human insulin 1 and 1% penicillin/streptomycin antibiotics and plate in 384-well flat-bottom plates at a density of 4,000 cells per well in phenol red free DMEM media (20 μL) containing 10% charcoal stripped FBS. Incubate the cells overnight in a cell culture incubator (5% CO2, 95% relative humidity and 37° C.) and allow the cells to attach to the plate. The following day dose the cells with the test compound. Use an Echo 555 acoustic dispenser to prepare test compound serial dilutions (1:3) in a range from 6 μM to 0.0003 μM. Dose the cells with the addition of 5 μL from the serial dilution plate to the cell plate producing a final DMSO concentration of 0.2% with a final test compound concentration dose range between 2 and 0.0001 μM. For the maximum point, use media containing 0.2% of DMSO and for the minimum point, use fulvestrant diluted at 2 μM final concentrations in the growth media containing 0.2% DMSO. After dosing with the test compound, incubate the cell plates at 37° C. and 5% CO2 for 24 hours. Fix the cells by adding 14% para-formaldehyde (10 μL) for 30 minutes at room temperature. Wash the cells once with PBS (20 μL) and incubate with PBS (20 μL) containing 0.5% (v/v) TWEEN® 20 for 1 hour. Wash the cells with PBS containing 0.05% TWEEN® 20 (2×) and block with 3% BSA in PBS containing 0.05% TWEEN® 20 and 0.1% TRITON™ X-100 (20 μL/well) for 1 hour at room temperature. Add 1:500 Primary antibody (20 μL) (ERα (Clone SP1) monoclonal rabbit antibody # RM-9101-S, Thermo Scientific) dilution in 1% BSA in PBS containing 0.05% TWEEN® 20 per well, seal the plates and incubate overnight at 4° C. The following day wash the cells with PBS containing 0.05% TWEEN® 20 (2×) and incubate with secondary antibody (20 μL/well) (1:1000 dilution, Goat anti-rabbit IgM ALEXA FLUOR™ 488) in PBS 1% BSA for 105 minutes at room temperature. […] Seal the plates and incubate 1 hour at room temperature on the bench (preserved from light). Scan the plates with ACUMEN EXPLORER™ [Laser-scanning fluorescence microplate cytometer manufactured by TTP LABTECH LTD] to measure ERα. Image analysis is based on cellular fluorescent signals for identifying positive cells. Identify ER positive cells by mean intensity. Use total intensity at 575-640 nm from propidium iodide/DNA to identify individual cells. Assay output is % ER positive cells. Determine the IC50 by curve fitting to a four parameter logistic for each output using GENE DATA™.

Structure (SMILES)	IC50 ([1]; Homo sapiens, MCF7, […])	Ki [2]	IC50 [3]	DC50 [4]	IC50 [1]
Oc1ccc2c3c(cnc2c1)-c1cccc(C(F)(F)F)c1OC3c1ccc(OCCN2CC(CF)C2)cc1 (racemic) [Example 2, 5-(4-{2-[3-(fluoromethyl)azetidin-1-yl]ethoxy}phenyl)-7-(trifluoromethyl)-5H-[1]benzopyrano[4,3-c]quinolin-2-ol]	0.0511 µM	2.17 nM	163 nM	52.2 ± 6.51 nM	
Oc1ccc2c3c(cnc2c1)-c1cccc(Cl)c1OC3c1ccc(OCCN2CC(CF)C2)cc1 (racemic) [Example 4, 7-chloro-5-(4-{2-[3-(fluoromethyl)azetidin-1-yl]ethoxy}phenyl)-5H-[1]benzopyrano[4,3-c]quinolin-2-ol]	0.0266 µM	0.64 nM	76.3 ± 168 nM	22.4 ± 0.355 nM	
Oc1ccc2c3c(cnc2c1)-c1ccc(F)cc1OC3c1ccc(OCCN2CC(CF)C2)cc1 (racemic) [Example 5, 8-fluoro-5-(4-{2-[3-(fluoromethyl)azetidin-1-yl]ethoxy}phenyl)-5H-[1]benzopyrano[4,3-c]quinolin-2-ol]	0.0725 ± 0.0263 µM	2.82 nM	118 ± 12.3 nM	36.5 ± 37.4 nM	
Oc1ccc2c3c(cnc2c1)-c1cccc(F)c1OC3c1ccc(OCCN2CC(CF)C2)cc1 (racemic) [Example 6, 7-fluoro-5-(4-{2-[3-(fluoromethyl)azetidin-1-yl]ethoxy}phenyl)-5H-[1]benzopyrano[4,3-c]quinolin-2-ol]	0.0236 µM	4.14 nM	82.6 ± 5.68 nM	50.9 ± 6.89 nM	
Cc1ccc2c(c1)OC(c1ccc(OCCN3CC(CF)C3)cc1)c1c-2cnc2cc(O)ccc12 (racemic) [Example 7, 5-(4-{2-[3-(fluoromethyl)azetidin-1-yl]ethoxy}phenyl)-8-methyl-5H-[1]benzopyrano[4,3-c]quinolin-2-ol]	0.0448 ± 0.0119 µM	1.55 nM	113 ± 20.9 nM	78.8 ± 7.38 nM	
Cc1cccc2c1OC(c1ccc(OCCN3CC(CF)C3)cc1)c1c-2cnc2cc(O)ccc12 (racemic) [Example 8, 5-(4-{2-[3-(fluoromethyl)azetidin-1-yl]ethoxy}phenyl)-7-methyl-5H-[1]benzopyrano[4,3-c]quinolin-2-ol]	0.0329 ± 0.003 µM	3.2 nM	68.3 ± 22.7 nM	17.4 ± 8.75 nM	
Oc1ccc2c3c(cnc2c1)-c1ccc(C(F)(F)F)cc1OC3c1ccc(OCCN2CC(CF)C2)cc1 (single isomer, unassigned) [Example 1B, 5-(4-{2-[3-(Fluoromethyl)azetidin-1-yl]ethoxy}phenyl)-8-(trifluoromethyl)-5H-[1]benzopyrano[4,3-c]quinolin-2-ol]					0.0167 ± 0.0091 µM
Oc1ccc2c3c(cnc2c1)-c1cccc(C(F)(F)F)c1OC3c1ccc(OCCN2CC(CF)C2)cc1 (single isomer, unassigned) [Example 2A, 5-(4-{2-[3-(Fluoromethyl)azetidin-1-yl]ethoxy}phenyl)-7-(trifluoromethyl)-5H-[1]benzopyrano[4,3-c]quinolin-2-ol]		0.65 nM	121 ± 53.7 nM	51.2 ± 16.3 nM	0.0428 ± 0.00267 µM
Oc1ccc2c3c(cnc2c1)-c1cccc(C(F)(F)F)c1OC3c1ccc(OCCN2CC(CF)C2)cc1 (single isomer, unassigned) [Example 2B, 5-(4-{2-[3-(Fluoromethyl)azetidin-1-yl]ethoxy}phenyl)-7-(trifluoromethyl)-5H-[1]benzopyrano[4,3-c]quinolin-2-ol]		60.4 nM	> 2000 nM	> 2000 nM	0.778 µM
Oc1ccc2c3c(cnc2c1)-c1cccc(Cl)c1OC3c1ccc(OCCN2CC(CF)C2)cc1 (single isomer, unassigned) [Example 4A, 7-Chloro-5-(4-{2-[3-(fluoromethyl)azetidin-1-yl]ethoxy}phenyl)-5H-[1]benzopyrano[4,3-c]quinolin-2-ol]		16.8 nM	846 nM	500 nM	0.544 ± 0.218 µM
Oc1ccc2c3c(cnc2c1)-c1cccc(Cl)c1OC3c1ccc(OCCN2CC(CF)C2)cc1 (single isomer, unassigned) [Example 4B, 7-Chloro-5-(4-{2-[3-(fluoromethyl)azetidin-1-yl]ethoxy}phenyl)-5H-[1]benzopyrano[4,3-c]quinolin-2-ol]		0.34 nM	28.7 nM	6.89 nM	0.0143 ± 0.00492 µM
Oc1ccc2c3c(cnc2c1)-c1ccc(F)cc1OC3c1ccc(OCCN2CC(CF)C2)cc1 (single isomer, unassigned) [Example 5A, 8-Fluoro-5-(4-{2-[3-(fluoromethyl)azetidin-1-yl]ethoxy}phenyl)-5H-[1]benzopyrano[4,3-c]quinolin-2-ol]		12.5 nM	600 nM	522 nM	0.517 ± 0.095 µM
Oc1ccc2c3c(cnc2c1)-c1ccc(F)cc1OC3c1ccc(OCCN2CC(CF)C2)cc1 (single isomer, unassigned) [Example 5B, 8-Fluoro-5-(4-{2-[3-(fluoromethyl)azetidin-1-yl]ethoxy}phenyl)-5H-[1]benzopyrano[4,3-c]quinolin-2-ol]		1.3 nM	32 ± 5.31 nM	9.49 ± 1.1 nM	0.0213 ± 0.013 µM
Oc1ccc2c3c(cnc2c1)-c1cccc(F)c1OC3c1ccc(OCCN2CC(CF)C2)cc1 (single isomer, unassigned) [Example 6A, 7-Fluoro-5-(4-{2-[3-(fluoromethyl)azetidin-1-yl]ethoxy}phenyl)-5H-[1]benzopyrano[4,3-c]quinolin-2-ol]		8.53 nM	253 nM	175 nM	0.323 ± 0.176 µM
